Where two headings read alike, the source gives them in different places.
Key:
[1] = tested on: N87 (human gastric (stomach) cancer cell line); assay: 72 hr ATP luminescence proliferation inhibition, N87; format: cell-based; settings: read-out: Proliferation Inhibition of Cancer Cells EC50, N87
Experimental: (§1) Proliferation inhibition was measured using a 72 hr ATP luminescence assay (Cheng et al., U.S. Pat. No. 8,394,922 B2 (2013)).
(§2) Proliferation inhibition was measured against: (a) H226 (human mesothelioma (lung) cancer cell line); (b) N87 (human gastric (stomach) cancer cell line); (c) OVCAR3 (human ovarian cancer cell line); (d) HCT116 (human colon cancer cell line); and (e) HCT116/VM46 (multidrug and paclitaxel resistant subline of HCT116).

[2] = tested on: H226 (human mesothelioma (lung) cancer cell line); assay: 72 hr ATP luminescence proliferation inhibition, H226; format: cell-based
Experimental: as §1, §2

[3] = tested on: OVCAR3 (human ovarian cancer cell line); assay: 72 hr ATP luminescence proliferation inhibition, OVCAR3; format: cell-based
Experimental: as §1, §2

[4] = tested on: HCT116/VM46 (multidrug and paclitaxel resistant subline of HCT116); assay: 72 hr ATP luminescence proliferation inhibition, HCT116/VM46; format: cell-based, human; settings: read-out: Proliferation Inhibition of Cancer Cells EC50, HCT116/VM46
Experimental: as §1, §2

[5] = tested on: HCT116 (human colon cancer cell line); assay: 72 hr ATP luminescence proliferation inhibition, HCT116; format: cell-based
Experimental: as §1, §2

[6] = Homo sapiens, NCI-H226, read-out: Proliferation Inhibition of Cancer Cells EC50, H226
[7] = Homo sapiens, OVCAR-3, read-out: Proliferation Inhibition of Cancer Cells EC50, OVCAR3
[8] = Homo sapiens, HCT-116/VM46, HCT116/VM46 cell line
[9] = Homo sapiens, HCT-116, read-out: Proliferation Inhibition of Cancer Cells EC50, HCT116
[10] = read-out: Proliferation Inhibition of Cancer Cells EC50, OVCAR3
[11] = read-out: Proliferation Inhibition of Cancer Cells EC50, HCT116
[12] = read-out: Proliferation Inhibition of Cancer Cells EC50, H226

SMILES	EC50 ([1]; Homo sapiens)	EC50 [2, 6]	EC50 [3, 7]	EC50 [4, 8]	EC50 [5, 9]	EC50 [1]	EC50 [3, 10]	EC50 ([4]; HCT116/VM46 cell line)	EC50 [5, 11]	EC50 [2, 12]
COCCOc1ccc2[nH]c(C(=O)N3C[C@@H](CCl)c4c3cc(O)c3[nH]c(C(=O)N5CCOCC5)cc43)cc2c1 [Ia-01]	0.007 nM	0.014 nM								
CCOc1ccc2[nH]c(C(=O)N3C[C@@H](CCl)c4c3cc(O)c3[nH]c(C(=O)N5CCOCC5)cc43)cc2c1 [Ia-02]	0.097 nM	0.042 nM	0.048 nM	0.045 nM	0.045 nM					
CCCOc1ccc2[nH]c(C(=O)N3C[C@@H](CCl)c4c3cc(O)c3[nH]c(C(=O)N5CCOCC5)cc43)cc2c1 [Ia-03]	0.048 nM	0.038 nM	0.026 nM	0.034 nM	0.034 nM					
O=C(c1cc2c3c(cc(O)c2[nH]1)N(C(=O)c1cc2cc(OCC4CC4)ccc2[nH]1)C[C@H]3CCl)N1CCOCC1 [Ia-04]	0.15 nM	0.11 nM	0.11 nM	0.12 nM	0.12 nM					
CC(C)COc1ccc2[nH]c(C(=O)N3C[C@@H](CCl)c4c3cc(O)c3[nH]c(C(=O)N5CCOCC5)cc43)cc2c1 [Ia-05]	0.21 nM	0.18 nM	0.076 nM	0.17 nM	0.17 nM					
O=C(c1cc2c3c(cc(O)c2[nH]1)N(C(=O)c1cc2cc(OC4CCC4)ccc2[nH]1)C[C@H]3CCl)N1CCOCC1 [Ia-06]						0.56 nM	0.32 nM	0.36 nM	0.36 nM	0.47 nM
O=C(c1cc2c3c(cc(O)c2[nH]1)N(C(=O)c1cc2cc(OCCC4CC4)ccc2[nH]1)C[C@H]3CCl)N1CCOCC1 [Ia-07]	0.81 nM	0.72 nM	0.41 nM	0.67 nM	0.67 nM					
O=C(c1cc2c3c(cc(O)c2[nH]1)N(C(=O)c1cc2cc(OCCO)ccc2[nH]1)C[C@H]3CCl)N1CCOCC1 [Ia-08]	1.3 nM	3.4 nM	2.1 nM							
COCCCOc1ccc2[nH]c(C(=O)N3C[C@@H](CCl)c4c3cc(O)c3[nH]c(C(=O)N5CCOCC5)cc43)cc2c1 [Ia-09]	0.016 nM	0.055 nM	0.025 nM							
O=C(c1cc2c3c(cc(O)c2[nH]1)N(C(=O)c1cc2cc(OCC4CCCCC4)ccc2[nH]1)C[C@H]3CCl)N1CCOCC1 [Ia-10]	0.15 nM	0.25 nM								
COc1ccc2[nH]c(C(=O)N3C[C@@H](CCl)c4c3cc(O)c3[nH]c(C(=O)N5CCOCC5)cc43)cc2c1 [Ia-11]	1.2 nM	1 nM	0.52 nM	0.92 nM	0.58 nM					
O=C(c1cc2c3c(cc(O)c2[nH]1)N(C(=O)c1cc2cc(-c4ccccc4)ccc2[nH]1)C[C@H]3CCl)N1CCOCC1 [Ia-12]	1.3 nM	0.53 nM	0.54 nM	0.29 nM	0.4 nM					
CC(C)Oc1ccc2[nH]c(C(=O)N3C[C@@H](CCl)c4c3cc(O)c3[nH]c(C(=O)N5CCOCC5)cc43)cc2c1 [Ia-13]	0.48 nM	0.32 nM	0.12 nM	0.24 nM	0.18 nM					
O=C(c1cc2c3c(cc(O)c2[nH]1)N(C(=O)c1cc2cc(OC4CCOCC4)ccc2[nH]1)C[C@H]3CCl)N1CCOCC1 [Ia-14]	0.36 nM	0.43 nM	0.1 nM	0.77 nM	0.26 nM					
O=C(c1cc2c3c(cc(O)c2[nH]1)N(C(=O)c1cc2cc(OC4CCCC4)ccc2[nH]1)C[C@H]3CCl)N1CCOCC1 [Ia-15]	0.32 nM	0.28 nM	0.21 nM	0.26 nM	0.22 nM					
CN(C)CCOc1ccc2[nH]c(C(=O)N3C[C@@H](CCl)c4c3cc(O)c3[nH]c(C(=O)N5CCOCC5)cc43)cc2c1 [Ia-16]	0.5 nM	0.4 nM								

SMILES	EC50 ([1]; Homo sapiens)	EC50 [2, 6]	EC50 [3, 7]	EC50 [4, 8]	EC50 [5, 9]	EC50 [1]	EC50 [3, 10]	EC50 ([4]; HCT116/VM46 cell line)	EC50 [5, 11]	EC50 [2, 12]
CNCCOc1ccc2[nH]c(C(=O)N3C[C@@H](CCl)c4c3cc(O)c3[nH]c(C(=O)N5CCOCC5)cc43)cc2c1 [Ia-17]						36 nM	18 nM	25 nM	19 nM	1.6 nM
NCCOc1ccc2[nH]c(C(=O)N3C[C@@H](CCl)c4c3cc(O)c3[nH]c(C(=O)N5CCOCC5)cc43)cc2c1 [Ia-18]	48 nM	32 nM	12 nM	19 nM	25 nM					
Nc1ccc2[nH]c(C(=O)N3C[C@@H](CCl)c4c3cc(O)c3[nH]c(C(=O)N5CCOCC5)cc43)cc2c1 [Ia-19]	3.1 nM	4.2 nM	1.1 nM	3.5 nM	3.2 nM					
COc1ccc2[nH]c(C(=O)N3C[C@@H](CCl)c4c3cc(O)c3[nH]c(C(=O)N5CCN(C)CC5)cc43)cc2c1 [Ia-20]						3.5 nM	1.5 nM	2.6 nM	1.9 nM	6.5 nM
CNCCN(C)C(=O)c1cc2c3c(cc(O)c2[nH]1)N(C(=O)c1cc2cc(OC)ccc2[nH]1)C[C@H]3CCl [Ia-21]						2.2 nM	1.2 nM	0.5 nM	0.85 nM	0.99 nM
COc1ccc2[nH]c(C(=O)N3C[C@@H](CCl)c4c3cc(O)c3[nH]c(C(=O)NCCOCCO)cc43)cc2c1 [Ia-22]						1.9 nM	1.1 nM	1.2 nM	1.2 nM	5.1 nM
CC[C@@H](CO)NC(=O)c1cc2c3c(cc(O)c2[nH]1)N(C(=O)c1cc2cc(OC)ccc2[nH]1)C[C@H]3CCl [Ia-23]						2.6 nM	1.1 nM	1.9 nM	0.9 nM	7.5 nM
CNCCN(CCOCCO)C(=O)c1cc2c3c(cc(O)c2[nH]1)N(C(=O)c1cc2cc(OC)ccc2[nH]1)C[C@H]3CCl [Ia-24]							250 nM	250 nM	250 nM	250 nM
Nc1ccc2[nH]c(C(=O)N3C[C@@H](CCl)c4c3cc(O)c3[nH]c(C(=O)N5CCNCC5)cc43)cc2c1 [Ia-25]						38 nM	22 nM	24 nM	13 nM	23 nM
CN1CCN(C(=O)c2cc3c4c(cc(O)c3[nH]2)N(C(=O)c2cc3cc(N)ccc3[nH]2)C[C@H]4CCl)CC1 [Ia-26]							2.7 nM	12 nM	4.1 nM	9.5 nM
CN(C)CCOc1ccc2[nH]c(C(=O)N3C[C@@H](CCl)c4c3cc(O)c3[nH]c(C(=O)Nc5ccc(O)cc5)cc43)cc2c1 [Ia-27]						3.5 nM				1.4 nM
CCCOc1ccc2[nH]c(C(=O)N3C[C@@H](CCl)c4c3cc(O)c3[nH]c(C(=O)N5CCCOCC5)cc43)cc2c1 [Ia-28]						0.066 nM	0.058 nM	0.09 nM	0.079 nM	0.3 nM
COCCOc1ccc2[nH]c(C(=O)N3C[C@@H](CCl)c4c3cc(O)c3[nH]c(C(=O)Nc5ccc(N)cc5)cc43)cc2c1 [Ia-29]						0.26 nM				0.63 nM
O=C(Nc1ccc2[nH]c(C(=O)N3C[C@@H](CCl)c4c3cc(O)c3[nH]c(C(=O)N5CCOCC5)cc43)cc2c1)c1ccc(O)cc1 [Id-01]	2.3 nM		1.1 nM		0.93 nM					
Nc1ccc(C(=O)Nc2ccc3[nH]c(C(=O)N4C[C@@H](CCl)c5c4cc(O)c4[nH]c(C(=O)N6CCOCC6)cc54)cc3c2)cc1 [Id-02]	1.4 nM	1.2 nM								

From patent US10287291B2, “Seco-cyclopropapyrroloindole compounds, antibody-drug conjugates thereof, and methods of making and use” (priority 2016, dated 2019)
